# From ChEMBL document CHEMBL5390322, “Discovery of 5-Azaquinoxaline Derivatives as Potent and Orally Bioavailable Allosteric SHP2 Inhibitors” (ACS Med Chem Lett, 2023)
# How the values were obtained:
# [1] = AUC(0 to infinity) in CD-1 mouse at 10 mg/kg, po measured upto 24 hrs by LC-MS/MS method; format: ADME, organism-based; parameters: time < 24 hrs, dose 10 mg/kg, route po; conditions: in vivo
# [2] = Solubility of the compound in FaSSIF at 1 mg/ml incubated for 24 hrs by LC-MS/MS analysis; format: physicochemical
# [3] = Tmax in CD-1 mouse at 10 mg/kg, po measured upto 24 hrs by LC-MS/MS method; format: ADME, organism-based; conditions: in vivo
# [4] = target: T1, Mitogen-activated protein kinase; ERK1/ERK2 (Homo sapiens, UniProt P27361+P28482); test: Inhibition of ERK1/2 phosphorylation at Thr202/Tyr204 residues in human KYSE520 cells incubated for 1 hrs by Western blot analysis; format: cell-based
# T1 sequence (P27361 whole entry, looked up): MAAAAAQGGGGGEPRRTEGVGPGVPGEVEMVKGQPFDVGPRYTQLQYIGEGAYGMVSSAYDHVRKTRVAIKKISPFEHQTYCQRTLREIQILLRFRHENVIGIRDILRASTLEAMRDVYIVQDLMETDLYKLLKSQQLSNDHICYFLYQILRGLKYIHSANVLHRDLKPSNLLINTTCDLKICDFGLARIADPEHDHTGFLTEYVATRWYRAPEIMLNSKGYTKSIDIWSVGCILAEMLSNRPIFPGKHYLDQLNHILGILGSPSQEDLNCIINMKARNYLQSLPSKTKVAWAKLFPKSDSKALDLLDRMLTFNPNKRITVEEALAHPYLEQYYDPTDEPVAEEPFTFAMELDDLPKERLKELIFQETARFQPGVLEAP
# T1 sequence (P28482 whole entry, looked up): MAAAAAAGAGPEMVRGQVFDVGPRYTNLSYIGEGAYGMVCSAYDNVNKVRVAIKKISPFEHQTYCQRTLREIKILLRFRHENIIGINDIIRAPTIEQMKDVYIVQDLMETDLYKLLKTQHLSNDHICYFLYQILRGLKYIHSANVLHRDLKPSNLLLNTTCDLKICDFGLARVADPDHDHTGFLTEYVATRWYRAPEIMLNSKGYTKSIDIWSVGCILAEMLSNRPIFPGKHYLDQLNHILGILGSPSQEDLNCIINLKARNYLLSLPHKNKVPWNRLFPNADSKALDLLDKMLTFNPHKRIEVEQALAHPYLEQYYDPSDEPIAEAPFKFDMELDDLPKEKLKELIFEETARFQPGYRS
# [5] = Metabolic stability in mouse liver microsome assessed as intrinsic clearance at […] preincubated for 5 mins followed by NADPH addition and measured after 20 mins by LC-MS analysis; format: ADME; conditions: liver microsomes, dose 2.5 µM, time 25 min, read-out: CLH
# [6] = Metabolic stability in mouse hepatocyte assessed as intrinsic clearance incubated for 1 to 2 hrs by LC-MS analysis; format: ADME, cell-based; conditions: hepatocytes, time 1-2 hrs, read-out: CLH
# [7] = Oral bioavailability in CD-1 mouse at 10 mg/kg measured upto 24 hrs by LC-MS/MS method; format: ADME, organism-based; conditions: in vivo
# [8] = Volume of distribution at steady state in CD-1 mouse at 1 mg/kg, iv measured upto 8 hrs by LC-MS/MS method; format: ADME, organism-based; conditions: in vivo, read-out: Vdss
# [9] = Cmax in CD-1 mouse at 10 mg/kg, po measured upto 24 hrs by LC-MS/MS method; format: ADME, organism-based; parameters: dose 10 mg/kg, time < 24 hrs, route po; conditions: in vivo
# [10] = target: T1, Mitogen-activated protein kinase; ERK1/ERK2; conditions: KYSE520, time 1.0 hrs
# [11] = target: T1, Mitogen-activated protein kinase; ERK1/ERK2; conditions: KYSE520, time 1.0 hrs; remark: listed apart in the source
# [12] = test system: MIA PaCa-2; test: Antitumor activity against human MIA PaCa-2 cells harboring KRAS G12C mutant xenografted in athymic nude Foxn1nu mouse assessed as tumor growth inhibition at 100 mg/kg,po administrated for 28 days and measured every 3 to 4 days relative to control; format: functional; conditions: time 28 day
# [13] = Half life in CD-1 mouse at 1 mg/kg, iv measured upto 8 hrs by LC-MS/MS method; format: ADME, organism-based; conditions: in vivo
# [14] = Permeability of compound from apical to basolateral side in LLC-PK1 cells incubated for 2 hrs by LC-MS/MS analysis; format: ADME, cell-based, Sus scrofa; conditions: pig, read-out: permeability
# [15] = Toxicity in athymic nude Foxn1nu mouse xenografted with human MIA PaCa-2 cells harboring KRAS G12C mutant assessed as body weight loss at 30 to 100 mg/kg,po administrated for 28 days and measured every 3 to 4 days relative to control; format: organism-based; conditions: in vivo, 672 h, dose 30-100 mg/kg, time 28 day
# [16] = test system: MIA PaCa-2; test: Antitumor activity against human MIA PaCa-2 cells harboring KRAS G12C mutant xenografted in athymic nude Foxn1nu mouse assessed as tumor growth inhibition at 30 mg/kg,po administrated for 28 days and measured every 3 to 4 days relative to control; format: functional; conditions: time 28 day
# [17] = Clearance in CD-1 mouse at 1 mg/kg, iv measured upto 8 hrs by LC-MS/MS method; format: ADME, organism-based; conditions: in vivo
# [18] = Metabolic stability in human liver microsome assessed as intrinsic clearance at […] preincubated for 5 mins followed by NADPH addition and measured after 20 mins by LC-MS analysis; format: ADME; conditions: liver microsomes, dose 2.5 µM, time 25 min, read-out: CLH
# [19] = Metabolic stability in human hepatocyte assessed as intrinsic clearance incubated for 1 to 2 hrs by LC-MS analysis; format: ADME, cell-based; conditions: hepatocytes, time 1-2 hrs, read-out: CLH
compound,measurement,setting,value
Nc1nccc(Sc2ccc3nc(N4CCC5(CC4)Cc4ncccc4[C@H]5N)cnc3n2)c1Cl,AUC(0-inf),[1],5780 ng·h/mL
same,solubility at 24 h,[2],271 µg/mL
same,Tmax,[3],4 h
same,IC50,[4],5 nM
same,CLint scaled at […],[5],35 mL/min/kg
same,CLint scaled,[6],28 mL/min/kg
same,bioavailability,[7],66.5%
same,Vd,[8],1.74 L/kg
same,Cmax,[9],649 ng/mL
same,fIC50,[10],0.06 µg/mL
same,fIC90,[10],0.535 µg/mL
same,fIC50,[11],0.06 µg/mL
same,fIC90,[11],0.535 µg/mL
same,TGI,[12],75%
same,half-life,[13],1.44 h
same,Papp A→B at 2 h,[14],11 ×10⁻⁶ cm/s
same,Activity,[15],< 5%
same,TGI,[16],38%
same,clearance,[17],19.2 mL/min/kg
same,CLint scaled at […],[18],9 mL/min/kg
same,CLint scaled at 10000 µM,[19],11 mL/min/kg
